Source: PubChem BioAssay AID248 (DTP/NCI, 2004)
Inconclusive results and toxic doses are left out. Rule as the data show it: active = T/C of 150% or more; inactive = T/C below 125%.

Tested on: L1210 leukemia ip in BDF1 mice, survival T/C
Assay: NCI In Vivo Anticancer Drug Screen. Data for tumor model L1210 Leukemia (intraperitoneal) in B6D2F1 (BDF1) mice
Settings: endpoint: mean survival time, higher = longer survival
How it was run: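 Tumor was transplanted into mice, which were then dosed with test compound or vehicle alone. Survival was recorded for each group, and the treated figure was expressed relative to the control figure.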

[1] = dose: 100.0 mg/kg/injection, schedule: Q01DX001 (ip), vehicle: other
[2] = dose: 200.0 mg/kg/injection, schedule: Q01DX001 (ip), vehicle: other
[3] = dose: 400.0 mg/kg/injection, schedule: Q01DX001 (ip), vehicle: other
[4] = dose: 100.0 mg/kg/injection, schedule: Q04DX003 (ip), vehicle: saline with Tween-80
[5] = dose: 200.0 mg/kg/injection, schedule: Q04DX003 (ip), vehicle: saline with Tween-80
[6] = dose: 400.0 mg/kg/injection, schedule: Q04DX003 (ip), vehicle: saline with Tween-80
[7] = dose: 100.0 mg/kg/injection, schedule: Q01DX001 (ip), vehicle: carboxymethylcellulose (CMC)
[8] = dose: 200.0 mg/kg/injection, schedule: Q01DX001 (ip), vehicle: carboxymethylcellulose (CMC)
[9] = dose: 400.0 mg/kg/injection, schedule: Q01DX001 (ip), vehicle: carboxymethylcellulose (CMC)
[10] = dose: 100.0 mg/kg/injection, schedule: Q01DX009 (ip), vehicle: Klucel (hydroxypropylcellulose) (HPC)
[11] = dose: 100.0 mg/kg/injection, schedule: Q04DX003 (ip), vehicle: Klucel (hydroxypropylcellulose) (HPC)
[12] = dose: 200.0 mg/kg/injection, schedule: Q01DX009 (ip), vehicle: Klucel (hydroxypropylcellulose) (HPC)
[13] = dose: 200.0 mg/kg/injection, schedule: Q04DX003 (ip), vehicle: Klucel (hydroxypropylcellulose) (HPC)
[14] = dose: 400.0 mg/kg/injection, schedule: Q01DX009 (ip), vehicle: Klucel (hydroxypropylcellulose) (HPC)
[15] = dose: 400.0 mg/kg/injection, schedule: Q04DX003 (ip), vehicle: Klucel (hydroxypropylcellulose) (HPC)
[16] = dose: 100.0 mg/kg/injection, schedule: Q04DX002 (ip), vehicle: Klucel (hydroxypropylcellulose) (HPC)
[17] = dose: 200.0 mg/kg/injection, schedule: Q04DX002 (ip), vehicle: Klucel (hydroxypropylcellulose) (HPC)
[18] = dose: 400.0 mg/kg/injection, schedule: Q04DX002 (ip), vehicle: Klucel (hydroxypropylcellulose) (HPC)
[19] = dose: 100.0 mg/kg/injection, schedule: Q01DX009 (ip), vehicle: saline with Tween-80
[20] = dose: 100.0 mg/kg/injection, schedule: Q01DX001 (ip), vehicle: saline
[21] = dose: 200.0 mg/kg/injection, schedule: Q01DX009 (ip), vehicle: saline with Tween-80
[22] = dose: 400.0 mg/kg/injection, schedule: Q01DX009 (ip), vehicle: saline with Tween-80
[23] = dose: 100.0 mg/kg/injection, schedule: Q01DX009 (ip), vehicle: saline
[24] = dose: 100.0 mg/kg/injection, schedule: Q04DX003 (ip), vehicle: saline
[25] = dose: 200.0 mg/kg/injection, schedule: Q01DX009 (ip), vehicle: saline
[26] = dose: 200.0 mg/kg/injection, schedule: Q04DX003 (ip), vehicle: saline
[27] = dose: 400.0 mg/kg/injection, schedule: Q04DX003 (ip), vehicle: saline
[28] = dose: 400.0 mg/kg/injection, schedule: Q01DX009 (ip), vehicle: saline

Measured: T/C

Cc1cc(=O)[nH]c2c(Cl)ccc(C(F)(F)F)c12
inactive: [1] 94 % of control | [2] 94 % of control | [3] 114 % of control

Cc1c(C/C(=N/O)C(=O)O)[nH]c(=S)[nH]c1=O
inactive: [4] 103 % of control | [5] 96 % of control | [6] 102 % of control

COc1ccc([N+](=O)[O-])cc1NC(C)=O
inactive: [7] 99 % of control | [8] 99 % of control | [9] 99 % of control

CCCCCCCC(=O)CCCC
inactive: [10] 101 % of control | [11] 103 % of control | [12] 98 % of control | [13] 101 % of control | [14] 102 % of control | [15] 101 % of control

Brc1cccc2ccccc12
inactive: dose: 25.0 mg/kg/injection, schedule: Q01DX009 (ip), vehicle: Klucel (hydroxypropylcellulose) (HPC) 89 % of control | dose: 50.0 mg/kg/injection, schedule: Q01DX009 (ip), vehicle: Klucel (hydroxypropylcellulose) (HPC) 86 % of control | [10] 99 % of control | [16] 112 % of control | [17] 105 % of control | [18] 119 % of control

CCCCCCCC[Si](c1ccc(C)cc1)(c1ccc(C)cc1)c1ccc(C)cc1
inactive: [1] 97 % of control | [2] 95 % of control | [3] 97 % of control

O=C1OC2C(I)C3CC1C2C3 (stereo not drawn)
inactive: dose: 50.0 mg/kg/injection, schedule: Q01DX009 (ip), vehicle: saline with Tween-80 96 % of control | [19] 95 % of control

O=S1(=O)CCN(c2ccccc2CC(c2c[nH]c3ccccc23)c2c[nH]c3ccccc23)CC1
inactive: [20] 89 % of control | dose: 200.0 mg/kg/injection, schedule: Q01DX001 (ip), vehicle: saline 86 % of control

COc1cc2c(cc1OC)C(CC(C)C)=[N+](C)CC2
inactive: dose: 25.0 mg/kg/injection, schedule: Q04DX002 (ip), vehicle: saline with Tween-80 93 % of control | dose: 50.0 mg/kg/injection, schedule: Q04DX002 (ip), vehicle: saline with Tween-80 93 % of control | dose: 100.0 mg/kg/injection, schedule: Q04DX002 (ip), vehicle: saline with Tween-80 93 % of control

ClC(CCC(Cl)c1ccccc1)c1ccccc1 (stereo not drawn)
inactive: [16] 101 % of control | [17] 104 % of control | [18] 101 % of control

COc1cccc2sc3ccccc3c(=O)c12
inactive: [19] 102 % of control | [4] 101 % of control | [21] 86 % of control | [5] 102 % of control | [22] 87 % of control | [6] 87 % of control

CCOC(=O)C(=O)Nc1ccc([N+](=O)[O-])cc1
inactive: [4] 87 % of control | [5] 98 % of control | [6] 87 % of control

CC(=O)Nc1cc([N+](=O)[O-])ccc1CC(O)c1ccccc1 (stereo not drawn)
inactive: [10] 109 % of control | [11] 97 % of control | [12] 111 % of control | [13] 97 % of control | [14] 94 % of control | [15] 100 % of control

CCCCCC(C)O[Si](C)Cc1ccccc1 (stereo not drawn)
inactive: [4] 95 % of control | [5] 97 % of control | [6] 90 % of control

O=C(COc1cccc([N+](=O)[O-])c1)Nc1ccc(S(=O)(=O)F)cc1
inactive: [10] 102 % of control | [12] 100 % of control | [14] 100 % of control

Cc1c(C(=O)O)cc2n(c1=O)Cc1cc3ccccc3nc1-2
inactive: [23] 90 % of control | [24] 95 % of control | [25] 86 % of control | [26] 106 % of control | [27] 98 % of control

COC(=O)C1=C[N+](C)(C)N=C1[O-]
inactive: [23] 97 % of control | [25] 94 % of control | [28] 93 % of control

O=C(Nc1ccc(Cl)c([N+](=O)[O-])c1)Nc1nc(C(F)(F)F)cc(=O)[nH]1
inactive: [10] 98 % of control | [12] 95 % of control | [14] 93 % of control

CC(=O)OC1CCC2(C)C(CCC3C4CCC(C(C)CC(=O)O)C4CCC32)C1 (stereo not drawn)
inactive: dose: 100.0 mg/kg/injection, schedule: Q04DX003 (sc), vehicle: steriod suspending solution 106 % of control | dose: 200.0 mg/kg/injection, schedule: Q04DX003 (sc), vehicle: steriod suspending solution 106 % of control | dose: 400.0 mg/kg/injection, schedule: Q04DX003 (sc), vehicle: steriod suspending solution 111 % of control

CC12CC(C(O)(C(F)(F)F)C(F)(F)F)C(=O)C=C1CCC1C2CCC2(C)C(C(=O)CC(O)(C(F)(F)F)C(F)(F)F)CCC12 (stereo not drawn)
inactive: dose: 100.0 mg/kg/injection, schedule: Q01DX001 (sc), vehicle: steriod suspending solution 103 % of control | dose: 200.0 mg/kg/injection, schedule: Q01DX001 (sc), vehicle: steriod suspending solution 103 % of control | dose: 400.0 mg/kg/injection, schedule: Q01DX001 (sc), vehicle: steriod suspending solution 101 % of control

CC(=O)NC(C)(SC(c1ccccc1)c1ccccc1)C(=O)O (stereo not drawn)
inactive: dose: 100.0 mg/kg/injection, schedule: Q01DX001 (ip), vehicle: Klucel (hydroxypropylcellulose) (HPC) 100 % of control | dose: 200.0 mg/kg/injection, schedule: Q01DX001 (ip), vehicle: Klucel (hydroxypropylcellulose) (HPC) 100 % of control | dose: 400.0 mg/kg/injection, schedule: Q01DX001 (ip), vehicle: Klucel (hydroxypropylcellulose) (HPC) 105 % of control

COc1cc(N)nc(OC)n1
inactive: [19] 98 % of control | [21] 98 % of control | [22] 97 % of control

CCOC(=O)CC(N)C(=O)OCC (stereo not drawn)
inactive: [23] 98 % of control | [11] 99 % of control | [24] 88 % of control | [25] 95 % of control | [13] 100 % of control | [26] 93 % of control | [28] 97 % of control | [15] 87 % of control | [27] 102 % of control

CCOC(=O)/C(=C/c1ccc(OC)c(OC)c1)P(=O)(OCC)OCC
inactive: dose: 50.0 mg/kg/injection, schedule: Q01DX001 (ip), vehicle: saline 101 % of control | [20] 95 % of control

O=S(Cc1ccccc1)C(Cl)(Cl)c1ccccc1 (stereo not drawn)
inactive: [1] 96 % of control | [2] 98 % of control | [3] 102 % of control

C#CC(C)(C)N1CCCCC1
inactive: dose: 25.0 mg/kg/injection, schedule: Q04DX003 (ip), vehicle: Klucel (hydroxypropylcellulose) (HPC) 110 % of control | dose: 50.0 mg/kg/injection, schedule: Q04DX003 (ip), vehicle: Klucel (hydroxypropylcellulose) (HPC) 106 % of control

NC(=S)NN=C1CCCCCCCCCCC1
inactive: dose: 50.0 mg/kg/injection, schedule: Q01DX001 (ip), vehicle: carboxymethylcellulose (CMC) 106 % of control | [7] 98 % of control | [8] 95 % of control | [9] 88 % of control
